In paper PMC10102067, “Synthesis of vancomycin fluorescent probes that retain antimicrobial activity, identify Gram-positive bacteria, and detect Gram-negative outer membrane damage” (Communications Biology, 2023):

Key:
S. aureus ATCC 25923 [1] = assay: Flow cytometry comparison with commercial fluorescent probes (Fig. S2A); assay type: cell-based; settings: 2 and 16 µg/mL, 30 min 37 °C
From the text: (§1) Figure S2. Comparison of probe 7 and probe 9 to commercial fluorescent probes using flow cytometry and microscopy. Labelling of S. aureus ATCC 25923 (A) and E. coli ATCC25922 (B) with vancomycin probe 7, probe 9, Van-FITC (SBR00028, Sigma-Aldrich), and Van-BODIPY (V34850, Invitrogen™) measured using flow […]
(§2) flow cytometer. The data are presented as the mean ± SEM (n = 3). GeoMean: Geometric Mean. (C) Airyscan confocal super-resolution imaging of vancomycin probe 7, probe 9, Van-FITC (SBR00028, Sigma-Aldrich), and Van-BODIPY (V34850, Invitrogen™) in S. aureus ATCC 25923. Bacteria were stained with probes (2 and 16 µg/mL, Green) for 30 min at 37 °C. Arrows indicate cells with Van-BODIPY entering cytoplasm. Scale bar = 1 µm.
(§3) (1 picture or pasted object on this page, not shown here)

S. aureus ATCC 25923 [2] = assay: Airyscan confocal super-resolution imaging, comparison of probes (Fig. S2C); assay type: cell-based; settings: 2 and 16 µg/mL, 30 min 37 °C
Method: Figure S2. Comparison of probe 7 and probe 9 to commercial fluorescent probes using flow cytometry
and microscopy. […]
Van-BODIPY (V34850, Invitrogen™) in S. aureus ATCC 25923. Bacteria were stained with probes (2 and 16
µg/mL, Green) for 30 min at 37 °C. Arrows indicate cells with Van-BODIPY entering cytoplasm. Scale bar = 1 µm.

S. aureus = settings: tested S. aureus strains (Table S3); dissolved in DMSO
Method: Bacteria were obtained from the American Type Culture Collection (ATCC; Manassas, VA, USA), Merck Sharp & Dohme (Kenilworth, NJ), the Coli Genetic Stock Center (CGSC, Yale University), Network on Antimicrobial Resistance in Staphylococcus aureus (NARSA) via BEI Resources (www.beiresources.org) and independent academic clinical isolate and mutant collections. All species used in this study were described fully in Table S4. Bacteria were cultured in Cation-Adjusted Mueller-Hinton Broth (CAMHB, Bacto Laboratories, Cat No. 212322) or Muller Hinton Broth (MHB, Bacto Laboratories, Cat No. 211443) at 37 °C overnight. A sample of each culture was then diluted 50-fold in MHB and incubated at 37 °C for 1.5–3 h. […] The compounds were serially diluted two-fold across the wells, with concentrations ranging from 0.06 µg/mL to 128 µg/mL, plated in duplicate. The resultant mid-log phase culture was diluted to 1 × 10^6 CFU/mL, then 50 µL was added to each well of the compound-containing 96-well plates (Corning, Cat. No 3641, non-binding surface (NBS) plates), giving a cell density of 5 × 10^5 CFU/mL, and a final compound concentration range of 0.03 µg/mL to 64 µg/mL.

E. coli ATCC25922 = assay: Flow cytometry comparison with commercial fluorescent probes (Fig. S2B); assay type: cell-based; settings: 2 and 16 µg/mL, 30 min 37 °C
From the text: as §1, §2, §3

E. coli = assay: microbe, parasite or virus in culture; settings: 3 h
Method: Bacteria were obtained from the American Type Culture Collection (ATCC; Manassas, VA, USA), Merck Sharp & Dohme (Kenilworth, NJ), the Coli Genetic Stock Center (CGSC, Yale University), Network on Antimicrobial Resistance in Staphylococcus aureus (NARSA) via BEI Resources (www.beiresources.org) and independent academic clinical isolate and mutant collections. All species used in this study were described fully in Table S4. Bacteria were cultured in Cation-Adjusted Mueller-Hinton Broth (CAMHB, Bacto Laboratories, Cat No. 212322) or Muller Hinton Broth (MHB, Bacto Laboratories, Cat No. 211443) at 37 °C overnight. A sample of each culture was then diluted 50-fold in MHB and incubated at 37 °C for 1.5–3 h. The stock solutions of vancomycin probes 7, 8 and 9 were prepared at 1.28 mg/mL in sterile water. The compounds were serially diluted two-fold across the wells, with concentrations ranging from 0.06 µg/mL to 128 µg/mL, plated in duplicate. […]

## CC(C)C[C@H](C(=O)N[C@H]1C(=O)N[C@@H](CC(N)=O)C(=O)N[C@H]2C(=O)N[C@H]3C(=O)N[C@H](C(=O)N[C@H](C(=O)O)c4cc(O)cc(O)c4-c4cc3ccc4O)[C@H](O)c3ccc(c(Cl)c3)Oc3cc2cc(c3O[C@@H]2O[C@H](CO)[C@@H](O)[C@H](O)[C@H]2O[C@H]2C[C@](C)(N)[C@H](O)[C@H](C)O2)Oc2ccc(cc2Cl)[C@H]1O)N(C)C(=S)Nc1ccc2c(c1)C(=O)OC21c2ccc(O)cc2Oc2cc(O)ccc21 [Van-FITC]
S. aureus ATCC 25923 [1]
  staining of S. aureus (flow cytometry, in words): the worst
S. aureus ATCC 25923 [2]
  peptidoglycan labelling pattern (Airyscan imaging, in words): no fluorescence signal observed at 2 µg/mL
S. aureus
  antimicrobial activity at the highest concentration tested: > 32 µg/mL
E. coli ATCC25922
  staining of E. coli (flow cytometry, in words): did not show much staining
E. coli
  MIC: > 64 µg/mL

## CN[C@H](CC(C)C)C(=O)N[C@H]1C(=O)N[C@@H](CC(N)=O)C(=O)N[C@H]2C(=O)N[C@H]3C(=O)N[C@H](C(=O)N[C@H](C(=O)O)c4cc(O)cc(O)c4-c4cc3ccc4O)[C@H](O)c3ccc(c(Cl)c3)Oc3cc2cc(c3O[C@@H]2O[C@H](CO)[C@@H](O)[C@H](O)[C@H]2O[C@H]2C[C@](C)(NC(=O)CCc3ccc4n3[B-](F)(F)[N+]3=C(C)C=C(C)C3=C4)[C@H](O)[C@H](C)O2)Oc2ccc(cc2Cl)[C@H]1O [Van-BODIPY]
S. aureus ATCC 25923 [1]
  staining of S. aureus (flow cytometry, in words): greatest intensity
S. aureus ATCC 25923 [2]
  peptidoglycan labelling pattern (Airyscan imaging, in words): label the cells more uniformly
E. coli ATCC25922
  staining of E. coli (flow cytometry, in words): stained a larger population of cells than the other probes
E. coli
  MIC: > 64 µg/mL
